Experimental data: patent publication US7973162B2, “Modulators of muscarinic receptors” (Vertex Pharmaceuticals Incorporated, priority 2007, dated 2011)

Each compound was assayed against T1, M2 muscarinic receptor (Homo sapiens, UniProt P08172) (assay: Functional mobilization of intracellular calcium (FLIPR), M2-CHO cells). Conditions: 100% efficacy = maximum response obtained with the Carbachol control.
T1 construct: expressed in transfected cells; host or cells: CHO (M2-CHO)
T1 sequence (P08172 1-466): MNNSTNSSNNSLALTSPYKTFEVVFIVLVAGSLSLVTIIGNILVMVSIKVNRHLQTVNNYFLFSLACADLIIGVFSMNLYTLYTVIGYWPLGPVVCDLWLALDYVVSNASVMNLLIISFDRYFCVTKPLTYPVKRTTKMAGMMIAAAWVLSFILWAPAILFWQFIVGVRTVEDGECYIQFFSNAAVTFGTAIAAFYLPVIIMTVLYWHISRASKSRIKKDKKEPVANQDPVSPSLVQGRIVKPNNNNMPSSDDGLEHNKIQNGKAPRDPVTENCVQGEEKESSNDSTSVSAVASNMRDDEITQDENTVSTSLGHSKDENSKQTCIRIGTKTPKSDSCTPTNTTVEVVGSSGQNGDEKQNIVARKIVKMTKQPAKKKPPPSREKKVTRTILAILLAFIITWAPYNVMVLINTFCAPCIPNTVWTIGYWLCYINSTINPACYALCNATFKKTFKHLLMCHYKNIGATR
Type: cell-based
Experimental: (§1) Functional Mobilization of Intracellular Calcium to Determine Muscarinic Receptor Activity:
(§2) CHO cells expressing muscarinic receptors (M1 to M5) are grown as monolayers in tissue culture flasks at 37° C. in a humidified atmosphere containing 5% CO2 and passaged every 3-5 days. The growth media is Dulbecco's modified eagles medium (DMEM, Gibco Cat# 12430-054), containing 25 mM Hepes and supplemented with Fetal Bovine Serum (Hyclone, cat #SH30071.03), 0.1 mM of MEM non-essential amino acids (GIBCO, Cat #11140-050), 1 mM MEM Sodium Pyruvate (GIBCO Cat #11360-070) and 100 units/ml of Penicillin G and 100 μg/ml of Streptomycin (GIBCO Cat #15140-122). The recombinant muscarinic receptor cell lines are grown under antibiotic pressure with media containing 25 μg/ml zeocin and 500 μg/ml G418 (M1-CHO), 4 μg/ml puromycin, 50 μg/ml zeocin and 2.5 μg/ml blasticidin (M2 and M4-CHO) or 50 μg/ml zeocin and 4 μg/ml puromycin (M3 and M5-CHO).
(§3) Cells are harvested at 80-90% confluence using Versene (GIBCO Cat #15040-066), collected by centrifugation and seeded 18-24 hrs prior to running the calcium assay at a density of 5,000-10,000 cells/well in […], clear-bottomed 384-well plates (BD Biocoat, poly-D-lysine, Cat#356663). The day of the experiment, the cells are washed with a plate washer (Bioteck Instruments, ELX 405) using bath1 buffer (140-mM NaCl, 4.5-mM KCl, 2-mM CaCl2, 1-mM MgCl2, 10-mM Hepes-Na, 10-mM Glucose, pH 7.4, with NaOH) containing 1 mM Probenecid. Next, the calcium dye Fluo-3 (25 μl/well of Fluo-3 AM at 4 μM, Molecular Probes F-1241, in Bath 1 buffer containing 1 mM Probenecid) is added to the 25 μl of Bath 1 remaining in each well after the plate wash and the dye is loaded at 37° C. in the tissue culture incubator for 60-90 min. The fluorescent dye is removed using the plate washer with Bath 1 containing 1 mM Probenecid, leaving 25 μl/well of this solution after the wash. Alternatively, cells can be loaded with the calcium indicator from Molecular Devices (Calcium 3 Assay Reagents, Cat #R7181) adding 5 μl of a 5× solution dye in Bath 1 containing 1 mM Probenecid (10 ml per dye flask cat #R7182 to generate a solution 20×) to 20 μl of the same buffer. After loading for 60 min, the experiment can be run without having to remove the dye.
(§4) Compounds are prepared at a 2× fold concentration in a 96-well plate (round bottom, Costar Corning cat #3656), by reconstituting the pre-spotted compounds in bath 1 containing 1 mM probenecid. The final concentration DMSO is 0.5%, and the amount of DMSO is normalized across the assay plate. To determine an agonist action of the compounds on muscarinic receptors, the reconstituted compounds are added (25 μl compound/well) to the cell assay plate (containing 25 μl/well) using the multi-channel robotic system of the FLIPR 3 Instrument (Molecular Devices, Sunnyvale, Calif.). To determine a functional inhibitory action of the compounds on muscarinic receptors, the reconstituted compounds are added (25 μl compound/well) to the assay plate and pre-incubated for 15 min prior to adding 25 μl of Carbachol at 3× the EC80 for each muscarinic subtype. Alternatively, the compounds can be co-applied simultaneously with the agonist. In both assay modes, the fluorescence is recorded for 60 sec (excitation wavelength is […] and emission wavelength 540 nm) using the FLIPR 3 instrument.
(§5) The potency, efficacy and selectivity of the muscarinic compounds were evaluated by screening the compound activity across the whole family (M1 to M5 cells). Compounds were also screened for activity on other proteins such as other GPCRs and ion channels to determine selectivity on M4 receptors.
(§6) Examples of activities and efficacies of the muscarinic compounds of formulae (I, Ia, and Ib) on modulating M1 and M4 receptors are shown below in Table 3. […]

Row | Structure (SMILES) | M2 Efficacy | Emax
1 | CCOC(=O)N1CCC(N2CCC3(CC2)C[C@H]2CC(=O)N[C@H]2c2ccccc23)CC1 [Compound 17] | ++ (efficacy was calculated to be from 100% to 25%) | 
2 | CC(=O)N1CC[C@@H]2CC3(CCN(C4CCCCC4)CC3)c3ccccc3[C@@H]21 [Compound 27] |  | < 25%
3 | O=C1C[C@@H]2CC3(CCN(C4CC5CCC(C5)C4)CC3)c3ccccc3[C@@H]2N1 (stereo partly drawn) [Compound 5] |  | 25 to 100%

Same assay, conditions: CHO cells expressing M2, calcium mobilization

Row | Structure (SMILES) | EC50
4 | CCOC(=O)N1CCC(N2CCC3(CC2)C[C@H]2CC(=O)N[C@H]2c2ccccc23)CC1 [Compound 17] | < 2 µM
5 | CC(=O)N1CC[C@@H]2CC3(CCN(C4CCCCC4)CC3)c3ccccc3[C@@H]21 [Compound 27] | > 5 µM
6 | O=C1C[C@@H]2CC3(CCN(C4CC5CCC(C5)C4)CC3)c3ccccc3[C@@H]2N1 (stereo partly drawn) [Compound 5] | < 2 µM

Each compound was assayed against T2, M3 muscarinic receptor (Homo sapiens, UniProt P20309) (assay: Functional mobilization of intracellular calcium (FLIPR), M3-CHO cells). Conditions: 100% efficacy = maximum response obtained with the Carbachol control.
T2 construct: expressed in transfected cells; host or cells: CHO (M3-CHO)
T2 sequence (P20309 whole entry): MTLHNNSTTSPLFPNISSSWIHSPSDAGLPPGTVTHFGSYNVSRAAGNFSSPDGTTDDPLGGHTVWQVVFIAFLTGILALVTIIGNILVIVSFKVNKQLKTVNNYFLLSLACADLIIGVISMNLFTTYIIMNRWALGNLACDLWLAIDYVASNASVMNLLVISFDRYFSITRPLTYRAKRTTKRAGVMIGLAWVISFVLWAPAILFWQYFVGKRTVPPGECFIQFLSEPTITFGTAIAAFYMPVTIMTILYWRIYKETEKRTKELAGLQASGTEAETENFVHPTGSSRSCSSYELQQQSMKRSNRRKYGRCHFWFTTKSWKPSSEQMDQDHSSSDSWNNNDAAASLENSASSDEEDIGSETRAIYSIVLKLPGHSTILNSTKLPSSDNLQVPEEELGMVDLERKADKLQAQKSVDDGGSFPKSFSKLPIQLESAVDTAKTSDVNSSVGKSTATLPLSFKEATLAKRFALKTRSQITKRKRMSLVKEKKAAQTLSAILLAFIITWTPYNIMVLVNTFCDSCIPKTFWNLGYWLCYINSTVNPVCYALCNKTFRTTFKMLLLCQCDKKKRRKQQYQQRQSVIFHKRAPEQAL
Type: cell-based
Experimental: as §1, §2, §3, §4, §5, §6

Row | Structure (SMILES) | M3 Efficacy | Emax
7 | CCOC(=O)N1CCC(N2CCC3(CC2)C[C@H]2CC(=O)N[C@H]2c2ccccc23)CC1 [Compound 17] | + (efficacy was calculated to be less than 25%) | 
8 | CC(=O)N1CC[C@@H]2CC3(CCN(C4CCCCC4)CC3)c3ccccc3[C@@H]21 [Compound 27] |  | < 25%
9 | O=C1C[C@@H]2CC3(CCN(C4CC5CCC(C5)C4)CC3)c3ccccc3[C@@H]2N1 (stereo partly drawn) [Compound 5] |  | < 25%

Same assay, conditions: CHO cells expressing M3, calcium mobilization

Row | Structure (SMILES) | EC50
10 | CCOC(=O)N1CCC(N2CCC3(CC2)C[C@H]2CC(=O)N[C@H]2c2ccccc23)CC1 [Compound 17] | > 5 µM
11 | CC(=O)N1CC[C@@H]2CC3(CCN(C4CCCCC4)CC3)c3ccccc3[C@@H]21 [Compound 27] | > 5 µM
12 | O=C1C[C@@H]2CC3(CCN(C4CC5CCC(C5)C4)CC3)c3ccccc3[C@@H]2N1 (stereo partly drawn) [Compound 5] | > 5 µM

The compounds below were run against T3, M4 muscarinic receptor (Homo sapiens, UniProt P08173) (assay: Functional mobilization of intracellular calcium (FLIPR), M4-CHO cells). Conditions: 100% efficacy = maximum response obtained with the Carbachol control.
T3 construct: expressed in transfected cells; host or cells: CHO (M4-CHO)
T3 sequence (P08173 1-479): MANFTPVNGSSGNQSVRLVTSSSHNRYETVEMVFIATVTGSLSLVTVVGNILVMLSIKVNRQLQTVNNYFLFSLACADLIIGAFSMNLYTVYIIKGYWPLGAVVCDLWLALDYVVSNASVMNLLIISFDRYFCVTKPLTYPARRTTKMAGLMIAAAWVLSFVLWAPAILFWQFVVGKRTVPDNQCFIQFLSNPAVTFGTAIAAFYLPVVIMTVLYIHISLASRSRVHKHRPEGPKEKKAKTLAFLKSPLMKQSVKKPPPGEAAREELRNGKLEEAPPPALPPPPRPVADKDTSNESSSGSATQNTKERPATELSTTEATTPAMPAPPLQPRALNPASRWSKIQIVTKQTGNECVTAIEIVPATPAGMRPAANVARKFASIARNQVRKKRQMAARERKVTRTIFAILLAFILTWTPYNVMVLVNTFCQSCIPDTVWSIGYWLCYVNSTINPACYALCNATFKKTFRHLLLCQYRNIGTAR
Type: cell-based
Experimental: as §1, §2, §3, §4, §5, §6

Row | Structure (SMILES) | M4 Efficacy | Emax
13 | CCOC(=O)N1CCC(N2CCC3(CC2)C[C@H]2CC(=O)N[C@H]2c2ccccc23)CC1 [Compound 17] | ++ (efficacy was calculated to be from 100% to 25%) | 
14 | CC(=O)N1CC[C@@H]2CC3(CCN(C4CCCCC4)CC3)c3ccccc3[C@@H]21 [Compound 27] |  | < 25%
15 | O=C1C[C@@H]2CC3(CCN(C4CC5CCC(C5)C4)CC3)c3ccccc3[C@@H]2N1 (stereo partly drawn) [Compound 5] |  | 25 to 100%

Same assay, conditions: CHO cells expressing M4, calcium mobilization

Row | Structure (SMILES) | EC50
16 | CCOC(=O)N1CCC(N2CCC3(CC2)C[C@H]2CC(=O)N[C@H]2c2ccccc23)CC1 [Compound 17] | < 2 µM
17 | CC(=O)N1CC[C@@H]2CC3(CCN(C4CCCCC4)CC3)c3ccccc3[C@@H]21 [Compound 27] | > 5 µM
18 | O=C1C[C@@H]2CC3(CCN(C4CC5CCC(C5)C4)CC3)c3ccccc3[C@@H]2N1 (stereo partly drawn) [Compound 5] | < 2 µM

What follows are compounds tested against T4, M1 muscarinic receptor (Homo sapiens, UniProt P11229) (assay: Functional mobilization of intracellular calcium (FLIPR), M1-CHO cells). Conditions: 100% efficacy = maximum response obtained with the Carbachol control.
T4 construct: expressed in transfected cells; host or cells: CHO (M1-CHO)
T4 sequence (P11229 1-460): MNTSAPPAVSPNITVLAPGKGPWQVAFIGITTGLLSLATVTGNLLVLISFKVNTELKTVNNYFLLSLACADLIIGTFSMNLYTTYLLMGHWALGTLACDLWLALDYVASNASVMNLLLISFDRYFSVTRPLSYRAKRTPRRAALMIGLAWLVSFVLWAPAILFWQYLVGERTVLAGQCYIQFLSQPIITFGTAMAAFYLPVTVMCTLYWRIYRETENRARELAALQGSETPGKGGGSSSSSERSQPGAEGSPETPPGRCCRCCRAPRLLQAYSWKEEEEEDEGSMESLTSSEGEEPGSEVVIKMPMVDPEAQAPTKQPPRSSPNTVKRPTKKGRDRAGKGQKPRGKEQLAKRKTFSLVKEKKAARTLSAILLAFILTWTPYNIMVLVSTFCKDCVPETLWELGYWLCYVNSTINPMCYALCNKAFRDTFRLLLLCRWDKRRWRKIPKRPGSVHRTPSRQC
Type: cell-based
Experimental: as §1, §2, §3, §4, §5, §6

Row | Structure (SMILES) | M1 Efficacy | Emax
19 | CCOC(=O)N1CCC(N2CCC3(CC2)C[C@H]2CC(=O)N[C@H]2c2ccccc23)CC1 [Compound 17] | ++ (efficacy was calculated to be from 100% to 25%) | 
20 | CC(=O)N1CC[C@@H]2CC3(CCN(C4CCCCC4)CC3)c3ccccc3[C@@H]21 [Compound 27] |  | < 25%
21 | O=C1C[C@@H]2CC3(CCN(C4CC5CCC(C5)C4)CC3)c3ccccc3[C@@H]2N1 (stereo partly drawn) [Compound 5] |  | 25 to 100%

Same assay, conditions: CHO cells expressing M1, calcium mobilization

Row | Structure (SMILES) | EC50
22 | CCOC(=O)N1CCC(N2CCC3(CC2)C[C@H]2CC(=O)N[C@H]2c2ccccc23)CC1 [Compound 17] | < 2 µM
23 | CC(=O)N1CC[C@@H]2CC3(CCN(C4CCCCC4)CC3)c3ccccc3[C@@H]21 [Compound 27] | > 5 µM
24 | O=C1C[C@@H]2CC3(CCN(C4CC5CCC(C5)C4)CC3)c3ccccc3[C@@H]2N1 (stereo partly drawn) [Compound 5] | < 2 µM
